Earlier results, collected in US20120015968A1, “USE OF PYRIMIDYLAMINOBENZAMIDE DERIVATIVES FOR THE TREATMENT OF DISORDERS MEDIATED BY THE LEUCINE ZIPPER-AND STERILE ALPHA MOTIF-CONTAINING KINASE (ZAK)” (NOVARTIS AG, priority 2009, published 2012).

Molecular target: ZAK (Homo sapiens, UniProt Q9NYL2)
Conditions: biotinylated myelin basic protein as substrate; U. Rix et al, Leukemia (2010) 24, 44-50, p. 48; read-out: IC50 of inhibition of ZAK activity

Chain of ZAK (Q9NYL2 whole entry): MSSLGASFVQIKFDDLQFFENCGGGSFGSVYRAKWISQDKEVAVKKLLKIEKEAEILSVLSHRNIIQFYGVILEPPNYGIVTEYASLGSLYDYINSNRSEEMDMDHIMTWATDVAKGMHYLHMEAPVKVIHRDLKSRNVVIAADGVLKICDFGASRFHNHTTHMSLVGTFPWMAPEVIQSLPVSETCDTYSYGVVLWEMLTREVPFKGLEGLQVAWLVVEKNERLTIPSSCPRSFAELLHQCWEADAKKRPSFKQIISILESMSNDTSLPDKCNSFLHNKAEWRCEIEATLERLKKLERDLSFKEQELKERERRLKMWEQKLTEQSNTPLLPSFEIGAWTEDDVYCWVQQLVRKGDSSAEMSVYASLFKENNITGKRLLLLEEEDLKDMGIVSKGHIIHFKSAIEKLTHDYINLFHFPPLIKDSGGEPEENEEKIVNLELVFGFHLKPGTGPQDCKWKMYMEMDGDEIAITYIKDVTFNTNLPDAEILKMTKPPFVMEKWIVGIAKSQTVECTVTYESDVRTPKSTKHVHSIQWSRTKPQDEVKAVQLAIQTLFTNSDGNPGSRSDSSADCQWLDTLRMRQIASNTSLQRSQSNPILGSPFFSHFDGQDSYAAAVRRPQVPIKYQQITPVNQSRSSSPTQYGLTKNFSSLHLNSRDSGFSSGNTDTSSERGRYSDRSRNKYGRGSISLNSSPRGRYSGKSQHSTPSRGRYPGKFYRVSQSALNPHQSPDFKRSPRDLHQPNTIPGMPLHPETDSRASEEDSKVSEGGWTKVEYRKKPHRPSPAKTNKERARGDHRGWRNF

For `Cc1ccc(NC(=O)c2ccc(CN3CC[C@H](N(C)C)C3)c(C(F)(F)F)c2)cc1Nc1nccc(-c2cncnc2)n1` [INNO-406], the IC50 is listed as 0.073 µM.
